Values joined by “and” are separate entries in the source; they are usually repeats but may differ in a detail not shown here. Identical values can stand only once.
Legend:
porcine pepsin = target: T1, porcine pepsin (Sus scrofa, UniProt P00791); test: Peptide stability in simulated gastric fluid (SGF); assay type: in vitro ADME
T1 construct: 0.32 g of porcine pepsin (Sigma-Aldrich, P7125) was dissolved under gentle agitation; purchased Sigma-Aldrich P7125
Method: (§1) Simulated gastric and intestinal fluids were prepared according to the States Pharmacopeia specifications (Test Solutions, United States Pharmacopeia 35, NF 30, 2012). SGF: 0.2 g of sodium chloride was dissolved in 50 ml of water, and the pH was adjusted to 1.2 by addition of 0.7 ml of 10 M hydrochloric acid. Then, 0.32 g of porcine pepsin (Sigma-Aldrich, P7125) was dissolved under gentle agitation, and the volume was filled up to 100 ml with Milli-Q water. SIF: 0.68 g of monobasic potassium phosphate was dissolved in 25 ml of Milli-Q water, and the pH was adjusted to 6.8 by adding 7.7 ml of a 0.2 M sodium hydroxide solution. Next, 1 g of porcine pancreatin (Sigma-Aldrich, P3292) was added under gentle agitation, and the volume was adjusted to 100 ml with Milli-Q water to afford a fine suspension. To test the stability in simulated gastrointestinal fluids, 396 μl of SGF or SIF was pre-heated at 37 °C for 10 min, and 4 μl of a 1 mM peptide solution in DMSO was added. […] Supernatant was analyzed by LC–MS to measure the peptide concentrations at the different timepoints. Residual peptide was calculated by normalizing the concentrations measured at T1 to T0.

[1] = Passive artificial membrane permeability (PAMPA)
porcine pancreatin = test: Peptide stability in simulated intestinal fluid (SIF); assay type: in vitro ADME; conditions: after 8 h vs 0 h (TIC); average of R1-R3
Method: as §1

[2] = as above; assay type: in vitro ADME, porcine; conditions: simulated gi fluid; 8 h, 37 °C, pH 6.8; read-out: Proteolytic stability: SIF (8 h) % remaining
Method: as §1

rat α-thrombin = target: T2, rat α-thrombin (Rattus norvegicus, UniProt P18292); test: Protease inhibition, Ki for rat α-thrombin (fluorogenic substrate Z-Gly-Gly-Arg-AMC); assay type: biochemical; conditions: replicates R1-R3
T2 construct: rat α-thrombin (Molecular Innovations) were used at final concentrations of 2 nM and 3 nM; purchased Molecular Innovations
Summary of the method: (§2)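 Ki values come from Cheng–Prusoff correction of IC50, itself fitted by four-parameter logistic regression of activity versus a no-peptide control. Assays used 2 nM human or 3 nM rat thrombin, 50 μM Z-Gly-Gly-Arg-AMC, 30 min kinetic fluorescence at 25 °C.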

[3] = Metabolic stability in rat liver microsomes (RLMs); conditions: rat, microsomes
Method: Metabolic stability was measured by incubating the peptides (10 μM) with RLMs. Peptides to test were dissolved in DMSO (4 mM), and 1 μl of the resulting solution was added to 365 μl of 0.1 M sodium phosphate buffer (pH 7.4). The solution was pre-warmed at 37 °C for 5 min before starting the reaction by addition of 24 μl of NADPH cofactor solution (22 mM) and 11 μl of RLMs (20 mg ml^−1 protein concentration; Thermo Fisher Scientific, RTMCPL). […] Samples were vortexed, sonicated for 5 min and centrifuged at 16,000g for 10 min. Supernatant was analyzed by LC–MS to quantify the disappearance of the compound and formation of degradation products.

human α-thrombin = human α-thrombin (Homo sapiens, UniProt P00734); test: Protease inhibition, Ki for human α-thrombin (fluorogenic substrate Z-Gly-Gly-Arg-AMC); assay type: biochemical; conditions: replicates R1-R3
Summary of the method: as §2

[4] = peptide 1.33E+02 uM, slope of proteolytic substrate cleavage over time

T1 sequence (P00791 60-385): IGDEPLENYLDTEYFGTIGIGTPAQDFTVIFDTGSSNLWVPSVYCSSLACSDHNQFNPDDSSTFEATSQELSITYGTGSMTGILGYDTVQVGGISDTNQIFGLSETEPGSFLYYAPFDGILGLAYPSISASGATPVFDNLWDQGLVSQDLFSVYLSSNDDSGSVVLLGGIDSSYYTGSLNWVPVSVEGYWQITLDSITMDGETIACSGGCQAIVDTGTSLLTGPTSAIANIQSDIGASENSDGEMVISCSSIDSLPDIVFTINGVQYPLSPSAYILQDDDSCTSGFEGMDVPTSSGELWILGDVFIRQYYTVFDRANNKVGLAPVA

O=C1CC2CCN(CC2)C(=O)[C@H](Cc2ccccc2)NC(=O)[C@@H](NC(=O)c2ccc(Cl)s2)CSCCS(=O)(=O)CCSCCN1 [compound 13]
SGF stability, Residual peptide Average (porcine pepsin; after 8 h vs 0 h (TIC), average of R1-R3): 103.72 | SGF stability, Residual peptide (porcine pepsin; after 8 h vs 0 h (TIC), single replicates R1-R3): 109.74 and 107.42 and 94.00 | remaining at 8 h (porcine pepsin; simulated gi fluid, 8 h, 37 °C, pH 1.2, read-out: Proteolytic stability: SGF (8 h) % remaining): 104 ± 8% | PAMPA permeability: % permeability ([1]; 50 μM, 12–18 h, acceptor concentration relative to equilibrium): 2.0 ± 1.7% | Papp at 50 μM ([1]; PAMPA, pH 7.4): 0.107 ×10⁻⁶ cm/s | Permeability% Average ([1]; PAMPA, average of R1-R3): 2.0% | Permeability% R1 ([1]; PAMPA, replicate R1, TIC of top well sample relative to sample at theoretical equilibrium): 3.95% | Permeability% R3 ([1]; PAMPA, replicate R3, TIC of top well sample relative to sample at theoretical equilibrium): 1.45% | SIF stability, Residual peptide Average (porcine pancreatin): 95.61 | remaining at 8 h [2]: 96 ± 11% | Rat alpha thrombin inhibition, slope normalized to DMSO (rat α-thrombin; [4]): 2.5 and 3.0 and 16.1 | Rat alpha thrombin inhibition, slope normalized to DMSO (rat α-thrombin; peptide 1.67E+01 uM): 7.6 and 7.2 and 19.3 | Rat alpha thrombin inhibition, slope normalized to DMSO (rat α-thrombin; peptide 2.08E+00 uM): 36.1 and 33.7 and 41.7 | Slope normalized to DMSO (proteolytic substrate cleavage over time) (rat α-thrombin; peptide 2.54E-04 uM): 99.5 and 98.8 | Slope normalized to DMSO (proteolytic substrate cleavage over time) (rat α-thrombin; peptide 3.18E-05 uM): 98.9 | Rat alpha thrombin inhibition, slope normalized to DMSO (rat α-thrombin; peptide 3.33E+01 uM): 4.5 and 3.9 and 18.0 | Rat alpha thrombin inhibition, slope normalized to DMSO (rat α-thrombin; peptide 4.17E+00 uM): 21.1 and 20.6 and 33.2 | Slope normalized to DMSO (proteolytic substrate cleavage over time) (rat α-thrombin; peptide 6.36E-05 uM): 99.5 | Slope normalized to DMSO (proteolytic substrate cleavage over time) (rat α-thrombin; peptide 6.51E-02 uM): 99.3 | Rat alpha thrombin inhibition, slope normalized to DMSO (rat α-thrombin; peptide 6.67E+01 uM): 2.7 and 2.5 and 17.0 | Slope normalized to DMSO (proteolytic substrate cleavage over time) (rat α-thrombin; peptide 8.14E-03 uM): 99.8 and 99.9 | Rat alpha thrombin inhibition, slope normalized to DMSO (rat α-thrombin; peptide 8.33E+00 uM): 14.3 and 13.8 and 26.6 | microsomal CLint ([3]; CL (ul/min/mg protein) R1, RLM CL, replicate R1): 187 µL/min/mg | microsomal CLint ([3]; CL (ul/min/mg protein) R2, RLM CL, replicate R2): 117 µL/min/mg | microsomal CLint ([3]; CL (ul/min/mg protein) R3, RLM CL, replicate R3): 148 µL/min/mg | half-life ([3]; Half Life (min) R1, RLM metabolic stability, replicate R1, 0-60 min): 7.4 min | half-life ([3]; Half Life (min) R2, RLM metabolic stability, replicate R2, 0-60 min): 11.9 min | half-life ([3]; Half Life (min) R3, RLM metabolic stability, replicate R3, 0-60 min): 9.38 min | half-life ([3]; Metabolic stability: Half life T1/2 (min), RLMs, mean and SD, three measurements): 9.5 ± 1.8 min | microsomal CLint ([3]; Metabolic stability: RLM CL (ul/min/mg), RLMs, mean and SD, three measurements): 151 ± 29 µL/min/mg | microsomal CLint ([3]; Metabolic stability: RLM CL Average, summary table, average of R1-R3): 151 µL/min/mg | microsomal CLint ([3]; Metabolic stability: RLM CL R1, summary table, rounded, replicate R1): 187 µL/min/mg | microsomal CLint ([3]; Metabolic stability: RLM CL R2, summary table, rounded, replicate R2): 117 µL/min/mg | microsomal CLint ([3]; Metabolic stability: RLM CL R3, summary table, rounded, replicate R3): 148 µL/min/mg | Human alpha thrombin inhibition, slope normalized to DMSO (human α-thrombin; peptide 1.02E-03 uM): 98.5 and 92.4 and 98.3 | Human alpha thrombin inhibition, slope normalized to DMSO (human α-thrombin; peptide 1.04E+00 uM): 56.0 and 56.7 and 59.7 | Human alpha thrombin inhibition, slope normalized to DMSO (human α-thrombin; peptide 1.27E-04 uM): 96.6 and 96.4 and 97.8 | Human alpha thrombin inhibition, slope normalized to DMSO (human α-thrombin; peptide 1.30E-01 uM): 89.4 and 79.1 and 90.0 | Human alpha thrombin inhibition, slope normalized to DMSO (human α-thrombin; [4]): 3.8 and 5.6 and 7.2 | Human alpha thrombin inhibition, slope normalized to DMSO (human α-thrombin; peptide 1.63E-02 uM): 96.8 and 95.2 and 98.6 | Human alpha thrombin inhibition, slope normalized to DMSO (human α-thrombin; peptide 1.67E+01 uM): 11.2 and 13.1 and 6.6 | Human alpha thrombin inhibition, slope normalized to DMSO (human α-thrombin; peptide 2.03E-03 uM): 96.1 and 91.3 and 98.5 | Human alpha thrombin inhibition, slope normalized to DMSO (human α-thrombin; peptide 2.08E+00 uM): 44.5 and 43.9 and 46.9 | Human alpha thrombin inhibition, slope normalized to DMSO (human α-thrombin; peptide 2.54E-04 uM): 98.7 and 101.9 and 92.3 | Human alpha thrombin inhibition, slope normalized to DMSO (human α-thrombin; peptide 2.60E-01 uM): 82.9 and 76.8 and 85.2 | Human alpha thrombin inhibition, slope normalized to DMSO (human α-thrombin; peptide 3.18E-05 uM): 98.4 and 99.1 and 103.6 | Human alpha thrombin inhibition, slope normalized to DMSO (human α-thrombin; peptide 3.26E-02 uM): 83.8 and 90.0 (2×) | Human alpha thrombin inhibition, slope normalized to DMSO (human α-thrombin; peptide 3.33E+01 uM): 7.3 and 17.9 and 6.7 | Human alpha thrombin inhibition, slope normalized to DMSO (human α-thrombin; peptide 4.07E-03 uM): 97.5 and 98.3 and 97.0 | Human alpha thrombin inhibition, slope normalized to DMSO (human α-thrombin; peptide 4.17E+00 uM): 31.6 and 18.4 and 32.8 | Human alpha thrombin inhibition, slope normalized to DMSO (human α-thrombin; peptide 5.09E-04 uM): 94.9 and 94.8 and 96.2 | Human alpha thrombin inhibition, slope normalized to DMSO (human α-thrombin; peptide 5.21E-01 uM): 73.3 and 69.5 and 73.8 | Human alpha thrombin inhibition, slope normalized to DMSO (human α-thrombin; peptide 6.36E-05 uM): 99.0 and 95.7 and 105.1 | Human alpha thrombin inhibition, slope normalized to DMSO (human α-thrombin; peptide 6.51E-02 uM): 92.9 and 89.5 and 93.7 | Human alpha thrombin inhibition, slope normalized to DMSO (human α-thrombin; peptide 6.67E+01 uM): 5.0 (2×) and 5.6 | Human alpha thrombin inhibition, slope normalized to DMSO (human α-thrombin; peptide 8.14E-03 uM): 98.2 and 94.5 and 89.6 | Human alpha thrombin inhibition, slope normalized to DMSO (human α-thrombin; peptide 8.33E+00 uM): 20.4 and 21.3 and 21.0
